Measurements taken from paper PMC10215355, “Chemical Composition of the Cinnamomum malabatrum Leaf Essential Oil and Analysis of Its Antioxidant, Enzyme Inhibitory and Antibacterial Activities” (Antibiotics, 2023).
In brackets after ≈: the same amount, converted by molar mass.

Legend:
[1] = tested on: Pseudomonas aeruginosa; assay: Minimum inhibitory concentration (96-well, TTC); type: cell-based
[2] = tested on: Bacillus cereus; assay: Disc diffusion method; type: cell-based; settings: 8 mm disc, 10 μL oil, 24 h
[3] = tested on: Staphylococcus aureus; assay: Minimum inhibitory concentration (96-well, TTC); type: cell-based
[4] = tested on: Bacillus cereus; assay: Minimum inhibitory concentration (96-well, TTC); type: cell-based
[5] = tested on: Salmonella enterica; assay: Disc diffusion method; type: cell-based; settings: 8 mm disc, 10 μL oil, 24 h
Excerpt: (§1) The bacteria were procured from Microbial Type Culture Collection and Gene Bank (MTCC), Chandigarh and maintained under standard conditions as prescribed by Bonnet, et al.. The bacterial strains used include Escherichia coli, Pseudomonas aeruginosa, Staphylococcus aureus, Bacillus cereus, Streptococcus pyogenes and Salmonella enterica.
Initially, the bacteria cultured were completed in Luria-Bertani broth; for the antibacterial study, the inoculum of the bacteria was made on a Mueller Hinton Agar (MHA) agar plate (Himedia, Mumbai, Maharashtra, India) at a thickness of 5 mm. Later, a filter paper disc (8 mm in diameter) containing the leaf essential oil of C. malabatrum (10 μL) was placed in the agar plate at a distance of 50 mm. At the end of 24 h, the formation of the growth inhibition zone was estimated.

[6] = tested on: Escherichia coli; assay: Disc diffusion method; type: cell-based; settings: 8 mm disc, 10 μL oil, 24 h
[7] = tested on: Escherichia coli; assay: Minimum inhibitory concentration (96-well, TTC); type: cell-based
[8] = tested on: Streptococcus pyogenes; assay: Minimum inhibitory concentration (96-well, TTC); type: cell-based
[9] = tested on: Salmonella enterica; assay: Minimum inhibitory concentration (96-well, TTC); type: cell-based
Excerpt: as §1
The determination of the MIC value was made according to the methods described by Campana, et al.. Before beginning, the density of the inoculum was spectrophotometrically set to 5 × 10^5 CFU/mL. From this, about 50 µL was transferred to individual wells of a 96-well plate containing different concentrations of C. malabatrum essential oil. Later, 2,3,5-triphenyltetrazolium chloride (10 µL) was added to each well; the pink color of the 2,3,5-triphenyltetrazolium chloride was lost in the absence of bacterial growth. The MIC value was considered as the lowest concentration without a detectable pink color.

[10] = tested on: Streptococcus pyogenes; assay: Disc diffusion method; type: cell-based; settings: 8 mm disc, 10 μL oil, 24 h
[11] = tested on: Staphylococcus aureus; assay: Disc diffusion method; type: cell-based; settings: 8 mm disc, 10 μL oil, 24 h
[12] = H2O2 radical scavenging (hydrogen peroxide quenching); settings: 0 to 100 µg/mL series
Procedure: (§2) The concentration of essential oil used was a different series from 0 to 100 μg/mL for each radical quenching assay. The quenching of DPPH radicals was analyzed using the methods of [70]. The ABTS radicals scavenging activity was analyzed according to the methods of Li et al.. The hydrogen peroxide quenching potential of the essential oil was following the methods of Munteanu and […] [72]. The ferric-reducing abilities of the essential oil were estimated according to the methods described by He et al.. The methods described by Okoh et al.

[13] = ABTS radical scavenging; settings: 0 to 100 µg/mL series
Procedure: as §2

[14] = molecular target: aldose reductase (Homo sapiens, UniProt P15121); assay: Aldose reductase inhibition; type: biochemical; settings: 0–100 μg/mL
[15] = molecular target: α-glucosidase; assay: α-Glucosidase inhibition; settings: 0–100 μg/mL
Procedure: The enzyme-inhibitory potential of the essential oil was evaluated by mixing different concentrations (0–100 μg/mL) against the respective enzymes and their substrates. The enzyme activities will be estimated in terms of the substrate utilized after incubation. The inhibition of α-amylase [75], α-glucosidase [76], aldose reductase [77] and sorbitol dehydrogenase [78] was carried out according to the methods previously described.

[16] = molecular target: T1, sorbitol dehydrogenase (Homo sapiens, UniProt Q00796); assay: Sorbitol dehydrogenase inhibition; type: biochemical; settings: 0–100 μg/mL
T1 sequence (Q00796 1-357): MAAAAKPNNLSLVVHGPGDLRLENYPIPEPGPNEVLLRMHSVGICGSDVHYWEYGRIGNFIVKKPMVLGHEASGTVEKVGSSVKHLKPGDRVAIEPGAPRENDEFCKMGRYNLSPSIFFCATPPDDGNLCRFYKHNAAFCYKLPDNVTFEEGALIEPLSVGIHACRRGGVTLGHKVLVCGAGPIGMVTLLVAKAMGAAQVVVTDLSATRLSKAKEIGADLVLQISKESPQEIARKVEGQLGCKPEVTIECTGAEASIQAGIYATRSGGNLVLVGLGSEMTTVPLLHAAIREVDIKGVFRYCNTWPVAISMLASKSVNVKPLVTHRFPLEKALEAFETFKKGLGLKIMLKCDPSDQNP

[17] = DPPH radical scavenging; settings: 0 to 100 µg/mL series
Procedure: as §2

[18] = Lipid peroxidation inhibition (ex vivo); settings: 0 to 100 µg/mL series
Procedure: as §2

[19] = molecular target: α-amylase; assay: α-Amylase inhibition; type: biochemical; settings: 0–100 μg/mL
[20] = Ferric-reducing potential (FRAP); settings: 0 to 100 µg/mL series
Procedure: as §2

[21] = tested on: Pseudomonas aeruginosa; assay: Disc diffusion method; type: cell-based; settings: 8 mm disc, 10 μL oil, 24 h

SMILES	MIC [1] [µg/mL]	Zone of Inhibition [2] [mm]	MIC [3] [µg/mL]	MIC [4] [µg/mL]	Zone of Inhibition [5] [mm]	Zone of Inhibition [6] [mm]	MIC [7] [µg/mL]	MIC [8] [µg/mL]	MIC [9] [µg/mL]	Zone of Inhibition [10] [mm]	Zone of Inhibition [11] [mm]	H2O2 radical scavenging IC50 [12] [µg/mL]	ABTS radical scavenging IC50 [13] [µg/mL]	IC50 [14] [µM]	α-Glucosidase inhibition IC50 [15] [µg/mL]	IC50 [16] [µM]	DPPH radical scavenging IC50 [17] [µg/mL]	Lipid peroxidation inhibition IC50 [18] [µg/mL]	α-Amylase inhibition IC50 [19] [µg/mL]	further results
CNC(C)C1CCC(N)C(OC2C(N)CC(N)C(OC3OCC(C)(O)C(NC)C3O)C2O)O1 (stereo not shown) [GM, gentamicin]	167 (≈ 350 µM)	21.3 ± 0.5	325 (≈ 680 µM)	325 (≈ 680 µM)	19.9 ± 0.3	21.3 ± 0.3	325 (≈ 680 µM)	167 (≈ 350 µM)	167 (≈ 350 µM)	19.2 ± 0.7	18.5 ± 0.5	–	–	–	–	–	–	–	–	–
O=C1O[C@H]([C@@H](O)CO)C(O)=C1O [Ascorbic Acid]	–	–	–	–	–	–	–	–	–	–	–	19.11 ± 0.26	12.82 ± 0.40	163	36.03 ± 1.98	341	8.13 ± 0.09	63.02 ± 0.33	45.17 ± 2.36	–
C=CC(C)(O)CCC=C(C)C (stereo not shown) [Linalool]	325 ± 100 (≈ 2110 µM)	17.6 ± 0.3	325 (≈ 2110 µM)	625 ± 100 (≈ 4050 µM)	16.8 ± 0.3	17.8 ± 0.1	625 ± 50 (≈ 4050 µM)	325 (≈ 2110 µM)	325 (≈ 2110 µM)	17.9 ± 0.1	18.1 ± 0.2	38.09 ± 2.45	40.01 ± 1.33	383	30.93 ± 3.41	573	35.22 ± 0.11	78.49 ± 3.07	62.34 ± 2.91	Ferric-reducing potential IC50 [20]: 35.93 ± 0.24 µg/mL; Zone of Inhibition [21]: 19.3 ± 0.2 mm
